Source: patent US20210147507A1, “METHODS TO AUGMENT OR ALTER SIGNAL TRANSDUCTION” (Bellicum Pharmaceuticals, Inc., priority 2017, published 2021)
Numbering of substitutions follows the chain as printed. In names and notes the source's numbering stands. Where two headings read alike, the source gives them in different places.

Assays:
FRB-KTF = FRB-KTF (Homo sapiens, UniProt P42345+P62942, W2101F); conditions: cited from earlier work
[1] = target: wt FRB (K2095 T2098 W2101) (Homo sapiens, UniProt P42345+P62942); conditions: cited from earlier work
FRB-PLF = FRB-PLF (Homo sapiens, UniProt P42345+P62942, K2095P/T2098L/W2101F); conditions: cited from earlier work
[2] = system: CD3+ΔCD19+ iCasp9 T cells / GvHD; experiment: Phase I clinical trial of allodepleted T cells transduced with iCasp9 after haploidentical stem cell transplantation; assay type: in vivo, human
Source text: This example presents results of a phase 1 clinical trial using an alternative suicide gene strategy. Briefly, donor peripheral blood mononuclear cells were co-cultured with recipient irradiated EBV-transformed lymphoblastoid cells (40:1) for 72 hrs., allodepleted with a CD25 immunotoxin and then transduced with a retroviral supernatant carrying the iCasp9 suicide gene and a selection marker (ΔCD19); ΔCD19 allowed enrichment to >90% purity via immunomagnetic selection.
Patients developing grade 1 GvHD were treated with 0.4 mg/kg AP1903 as a 2-hour infusion.
Three patients received iCasp9^+ T cells after haplo-CD34^+ stem cell transplantation (SCT), at dose levels between about 1×10^6 to about 3×10^6 cells/kg.

cells = experiment: Rimiducid amount needed in vitro for effective signaling of cells; assay type: cell-based
Method: This equates to 14-140 μg/L or ˜0.014-0.14 mg/kg ([…]). The dosage may vary according to the application, and may, in certain examples, be more in the range of 0.1-10 nM, or in the range of 50-150 nM, 10-200 nM, 75-125 nM, 100-500 nM, 100-600 nM, 100-700 nM, 100-800 nM, or 100-900 nM.

[3] = target: wild-type phenylalanine 36 FKBP12 (Homo sapiens, UniProt P62942); conditions: cited from earlier work
[4] = cited from earlier work; for safety and tolerability (in words): healthy volunteers
[5] = system: HPAC pancreatic cancer cells; experiment: T cell anti-tumor assay: PSCA CAR-T cells with iM-X cocultured with HPAC-RFP cells (IncuCyte); assay type: cell-based, human; conditions: 1 nM
Method: The HPAC PSCA^+ tumor cells were stably labeled with nuclear-localized RFP protein using the NucLight™ Red Lentivirus Reagent (Essen Bioscience, 4625). To set up the coculture, 4000 HPAC-RFP cells were seeded per well of 96-well plates in 100 μl of CTL medium without IL-2 for at least 4 hours to allow tumor cells to adhere. After transduction with the appropriate retrovirus and having been allowed to rest for at least 7 days in culture, T were seeded according to various E:T ratios in the HPAC-RFP-containing 96-well plates. […] Each plate was set up in duplicates, one plate to monitor with the IncuCyte and one plate for supernatant collection for ELISA assay on day 2. The plates were centrifuged for 5 min at 400×g and placed inside the IncuCyte (Dual Color Model 4459) to monitor red fluorescence (and green fluorescence if T cells were labeled with GFP-Ffluc) every 2-3 hours for a total of 7 days at 10× objective. Image analysis was performed using the “HPAC-RFP-_TcellsGFP_10×_MLD” processing definition. On day 7, HPAC-RFP cells were analyzed using the “Red Object Count (1/well)” metric. Also on day 7, 0 or 10 nM of suicide drug were added to each well of the coculture and placed back in the IncuCyte to monitor T cell elimination. On day 8, Tcell-GFP cells were analyzed using the “Total Green Object Integrated Intensity” metric. […]

[6] = system: chimeric Caspase-9 polypeptide; experiment: Caspase-9 mutant classes and basal activity (Table 5); assay type: cell-based; conditions: Caspase-9 mutant class; basal (ligand-independent) signaling compared with unmodified chimeric Caspase-9
Chain of chimeric Caspase-9 polypeptide (P62942 2-108 F37V limits assumed): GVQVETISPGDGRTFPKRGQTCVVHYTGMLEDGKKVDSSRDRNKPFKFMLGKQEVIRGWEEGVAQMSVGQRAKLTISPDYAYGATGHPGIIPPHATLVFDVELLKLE

Chain of wt FRB (K2095 T2098 W2101) (P42345 2012-2144 limits assumed): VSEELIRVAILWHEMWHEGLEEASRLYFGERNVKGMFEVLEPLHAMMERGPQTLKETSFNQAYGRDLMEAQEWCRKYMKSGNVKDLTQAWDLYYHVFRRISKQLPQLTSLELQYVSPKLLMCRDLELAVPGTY
Chain of wt FRB (K2095 T2098 W2101) (P62942 2-108 limits assumed): as the sequence (P62942 2-108 F37V limits assumed) above, with V36F counted along it
Chain of wild-type phenylalanine 36 FKBP12 (P62942 whole entry): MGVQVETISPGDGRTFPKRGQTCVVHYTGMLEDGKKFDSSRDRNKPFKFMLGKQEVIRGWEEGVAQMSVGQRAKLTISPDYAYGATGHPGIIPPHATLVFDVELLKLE
Chain of FRB-KTF (P42345 2012-2144 W2101F): as the sequence (P42345 2012-2144 limits assumed) above, with W90F counted along it
Chain of FRB-KTF (P62942 2-108): as the sequence (P62942 2-108 F37V limits assumed) above, with V36F counted along it
Chain of FRB-PLF (P42345 2012-2144 K2095P/T2098L/W2101F limits assumed): as the sequence (P42345 2012-2144 limits assumed) above, with K84P, T87L, W90F counted along it
Chain of FRB-PLF (P62942 2-108 limits assumed): as the sequence (P62942 2-108 F37V limits assumed) above, with V36F counted along it

S-Butanesulfonamidorap [AP23050]
EC50 (FRB-KTF): > 200 nM | EC50 [1]: ~2.7 nM

CO[C@@H]1C[C@H](C[C@@H](C)[C@@H]2CC(=O)[C@H](C)/C=C(\C)[C@@H](O)[C@@H](OC)C(=O)[C@H](C)C[C@H](C)/C=C/C=C/C=C(\C)[C@H](OC(C)C)C[C@@H]3CC[C@@H](C)[C@@](O)(O3)C(=O)C(=O)N3CCCC[C@H]3C(=O)O2)CC[C@H]1O [R-Isopropoxyrapamycin]
EC50 (FRB-PLF): ~8.5 nM | EC50 [1]: ~300 nM

CC[C@H](C(=O)N1CCCC[C@H]1C(=O)O[C@H](CCc1ccc(OC)c(OC)c1)c1cccc(OCC(=O)NCCNC(=O)COc2cccc([C@@H](CCc3ccc(OC)c(OC)c3)OC(=O)[C@@H]3CCCCN3C(=O)[C@@H](CC)c3cc(OC)c(OC)c(OC)c3)c2)c1)c1cc(OC)c(OC)c(OC)c1 (relative stereo) [rimiducid, 2-Piperidinecarboxylic acid, 1-[(2S)-1-oxo-2-(3,4,5-trimethoxyphenyl)butyl]-, 1,2-ethanediylbis [imino(2-oxo-2,1-ethanediyl)oxy-3,1-phenylene[(1R)-3-(3,4-Dimethoxyphenyl)propylidene]] ester, [2S-[1(R*),2R*[S*[S*[1(R*),2R1]]]]]-(9C1)]
time to resolution of skin and liver GvHD ([2]; after rimiducid administration): ≤ 24 h | ablation of CD3+ΔCD19+ cells ([2]; within 30 minutes of infusion, two patients with grade I/II GvHD): > 90% | further reduction of CD3+ΔCD19+ cells ([2]; within 24 hours): further log reduction | amount needed for effective signaling, converted (cells): 0.014 to 0.14 mg/kg | amount needed in vitro for effective signaling of cells (cells): 10 to 100 nM | amount needed for effective signaling, converted (cells; MW 1412 Da): 14 to 140 µg/L | binding to FKBP12 (in words) [3]: not able to bind | duration of the adverse event ([4]; 1.0 mg/kg): 32 min | onset of the adverse event after start of infusion ([4]; 1.0 mg/kg): 3 min | mean Cmax ([4]; 0.01-1.0 mg/kg dose range, infused IV over 2 hours): 10 to 1275 ng/mL | plasma levels versus dose ([4]; 0.01-1.0 mg/kg): directly proportional to dose | adverse event considered possibly related ([4]; 1 volunteer at 1.0 mg/kg): vasodilatation | plasma level, % of maximal concentration ([4]; 0.5 hours post-dose): 18% | plasma level, % of maximal concentration ([4]; 0.5 hours post-dose, listed as Rimiducid): approximately 18% | plasma level, % of maximal concentration ([4]; 2 hours post-dose): ~7% | plasma level, % of maximal concentration ([4]; 10 hours post-dose): ~1% | well-tolerated dose ([4]; Phase I study): up to 1 mg/kg | incidence of adverse events ([4]; following each treatment): very low | safety and tolerability (in words) ([4]; 0.01-1.0 mg/kg): No significant adverse effects | safety and tolerability (in words) ([4]; 0.01-1.0 mg/kg, listed as AP1903): No serious adverse events | pharmacokinetic profile (in words) ([4]; human, in vivo): favorable pharmacokinetic profile | effect on cell growth of tumor or T cell ([5]; Not Transduced (NT) primary T cells): did not affect the cell growth | effect on T cell efficacy ([5]; T cells expressing the inducible chimeric signaling polypeptide): augmented T cell efficacy

B1: S144A (protein)
chain: GFGDVGALEALRGNADLAYILSMEPCGHCLIINNVNFCRESGLRTRTGSNIDCEKLRRRFSSLHFMVEVKGDLTAKKMVLALLELARQDHGALDCCVVVILSHGCQASHLQFPGAVYGTDGCPVSVEKIVNIFNGTSCPSLGGKPKLFFIQACGGEQKDHGFEVASTSPEDESPGSNPEPDATPFQEGLRTFDQLDAISSLPTPSDIFVSYSTFPGFVSWRDPKSGSWYVETLDDIFEQWAHSEDLQSLLLRVANAVSVKGIYKQMPGCFNFLRKKLFFKTSASRA
Basal Activity [6]: Decreased

B2: S144D (protein)
chain: B1 chain with A10D
Basal Activity [6]: Decreased

B3: T317S (protein)
chain: B1 chain with A10S, T183S
Basal Activity [6]: Decreased

B4: S196D (protein)
chain: B1 chain with A10S, S62D
Basal Activity [6]: Decreased
